Assay results reported in patent US20170298056A1, “SMALL MOLECULE INHIBITORS OF HIV-1 ENTRY AND METHODS OF USE THEREOF” (Dana-Farber Cancer Institute, Inc., priority 2014, published 2017).
Read-outs that look alike come from different tables or passages of the source.

Columns and labels:
HIV-1YU2 = test: Viral infection assay, YU2 Env (wild type and mutants); type: cell-based; details: for Fold change: mutant/wild-type IC50
Excerpt: HIV-1 Env mutants. Mutations were introduced into the plasmid expressing the fulllength HIV-1YU2 or HIV-1JR-FL Envs using the QuikChange II site-directed mutagenesis protocol or the QuikChange multi site-directed mutagenesis kit (Stratagene). The presence of the desired mutations was confirmed by DNA sequencing. All HIV-1 Env residues are numbered based on alignment with the HXBc2 prototypic sequence, according to current convention.
(§1) Production of recombinant HIV-1 expressing luciferase. […] After 48 hours, the supernatant was collected, buffered with 50 mM Hepes pH 7.4 (final concentration) and centrifuged for 5 minutes at 750×g and 4° C. The virus-containing supernatant was used directly or frozen at −80° C.
(§2) Viral infection assay. Each test compound was serially diluted in DMSO in a 96-well B&W isoplate (PerkinElmer, Boston, Mass.) using an HP D300 Digital Dispenser, to a final volume of 450 nl. DMSO was used as a control. Viruses pseudotyped with a specific Env were added to each well and incubated briefly at room temperature. Cf2Th-CD4/CCR5 cells were detached with StemPro Accutase Cell Dissociation Reagent (Invitrogen, cat #A11105-01), washed once, and 5000 cells were added to each well. […] Following incubation, the medium was aspirated and cells were lysed with 30 μl of Passive Lysis Buffer (Promega, cat #E1941). The activity of the firefly luciferase, which was used as a reporter protein in the system, was measured with a Centro LB 960 luminometer (Berthold Technologies, Oak Ridge, Tenn.). One hundred microliters of assay buffer (15 mM MgSO4, 15 mM KH2PO4/K2HPO4 pH 7.8, 1 mM ATP and 1 mM DTT) was injected to each well, followed by a 50 μl injection of 1 mM Dluciferin potassium salt (BD Pharmingen, San Jose, Calif.); luminescence was measured for 2 sec. Infection of PBMC was done as above, but 20,000-40,000 cells/well and viruses concentrated by ultracentrifugation were used. After four hours of incubation with viruses, the cells were centrifuged at 200×g for 6 minutes at 4° C., resuspended in 100 μl RPMI-PBMC medium and incubated at 37° C. for an additional 36-40 hours (total 40-44 hours). Supernatant was removed after centrifugation at 400×g for 5 minutes and cells were processed to detect luciferase activity, as described above.

[1] = system: HXBc2-YU2 Chimeras (CCR5-tropic); test: Viral infection assay, HXBc2-YU2 chimeras (CCR5-tropic); type: cell-based, HIV-1
Experimental: as §1
as §2, with “Infection of PBMC was done as above, but 20,000-40,000 cells/well and viruses concentrated by ultracentrifugation were used. After four hours of incubation with viruses, the cells were centrifuged at 200×g for 6 minutes at 4° C., resuspended in 100 μl RPMI-PBMC medium and incubated at 37° C. for an additional 36-40 hours (total 40-44 hours). Supernatant was removed after centrifugation at 400×g for 5 minutes and cells were processed to detect luciferase activity, as described above.” left out

[2] = system: all CCR5-using HIV-1 isolates; test: Viral infection assay, panel of CCR5-using HIV-1 isolates; type: cell-based; details: Cf2Th-CD4/CCR5 cells
Experimental: as §1
as §2, with “Infection of PBMC was done as above, but 20,000-40,000 cells/well and viruses concentrated by ultracentrifugation were used. After four hours of incubation with viruses, the cells were centrifuged at 200×g for 6 minutes at 4° C., resuspended in 100 μl RPMI-PBMC medium and incubated at 37° C. for an additional 36-40 hours (total 40-44 hours). Supernatant was removed after centrifugation at 400×g for 5 minutes and cells were processed to detect luciferase activity, as described above.” left out

Molecule O=C(N/N=C/c1ccc(O)cc1)Nc1cccc2nsnc12 [Compound 18A] has an IC50 (HIV-1YU2; YU2 Env D113A) of 6 ± 1.4 µM, a Fold change (HIV-1YU2; YU2 Env D113A) of 0.7 and an IC50 (HIV-1YU2; YU2 Env D589L) of 12.1 ± 1.5 µM. For the same molecule, the Fold change (HIV-1YU2; YU2 Env D589L) was 1.4, the IC50 (HIV-1YU2; YU2 Env E370A) was 2.3 ± 0.8 µM and the Fold change (HIV-1YU2; YU2 Env E370A) was 0.3. For the same molecule, the IC50 (HIV-1YU2; YU2 Env E429K) was 9 ± 1.4 µM, the Fold change (HIV-1YU2; YU2 Env E429K) was 1.1 and the IC50 (HIV-1YU2; YU2 Env H66A) was 8 ± 0.9 µM. It also gave a Fold change (HIV-1YU2; YU2 Env H66A) of 1, an IC50 (HIV-1YU2; YU2 Env H66N) of 4.6 ± 0.5 µM and a Fold change (HIV-1YU2; YU2 Env H66N) of 0.5. For the same molecule, the IC50 (HIV-1YU2; YU2 Env I108A) was 6.1 ± 0.7 µM, the Fold change (HIV-1YU2; YU2 Env I108A) was 0.7 and the IC50 (HIV-1YU2; YU2 Env I109W) was 2.9 ± 0.4 µM. It also gave a Fold change (HIV-1YU2; YU2 Env I109W) of 0.3, an IC50 (HIV-1YU2; YU2 Env I285A) of 6.3 ± 1.5 µM and a Fold change (HIV-1YU2; YU2 Env I285A) of 0.7. The IC50 (HIV-1YU2; YU2 Env I309A) was 4.2 ± 1.3 µM, the Fold change (HIV-1YU2; YU2 Env I309A) was 0.5 and the IC50 (HIV-1YU2; YU2 Env I371A) was 6.5 ± 0.9 µM. For the same molecule, the Fold change (HIV-1YU2; YU2 Env I371A) was 0.8, the IC50 (HIV-1YU2; YU2 Env I420C) was 2.1 ± 0.4 µM and the Fold change (HIV-1YU2; YU2 Env I420C) was 0.2. For the same molecule, the IC50 (HIV-1YU2; YU2 Env I420S) was 4.8 ± 0.8 µM, the Fold change (HIV-1YU2; YU2 Env I420S) was 0.6 and the IC50 (HIV-1YU2; YU2 Env I423R) was 2.4 ± 0.4 µM. The Fold change (HIV-1YU2; YU2 Env I423R) was 0.3, the IC50 (HIV-1YU2; YU2 Env K117W) was 6.5 ± 1.1 µM and the Fold change (HIV-1YU2; YU2 Env K117W) was 0.8. It also gave an IC50 (HIV-1YU2; YU2 Env L111A) of 10.4 ± 1.6 µM, a Fold change (HIV-1YU2; YU2 Env L111A) of 1.2 and an IC50 (HIV-1YU2; YU2 Env L260A) of 3.4 ± 1.5 µM. The Fold change (HIV-1YU2; YU2 Env L260A) was 0.4, the IC50 (HIV-1YU2; YU2 Env L261A) was 4.9 ± 1 µM and the Fold change (HIV-1YU2; YU2 Env L261A) was 0.6. It also gave an IC50 (HIV-1YU2; YU2 Env L317A) of 10.2 ± 1.4 µM, a Fold change (HIV-1YU2; YU2 Env L317A) of 1.2 and an IC50 (HIV-1YU2; YU2 Env M475A (associated with resistance to BMS-806)) of 10.2 ± 2.6 µM. The Fold change (HIV-1YU2; YU2 Env M475A) was 1.2, the IC50 (HIV-1YU2; YU2 Env N377A) was 3.3 ± 0.6 µM and the Fold change (HIV-1YU2; YU2 Env N377A) was 0.4. For the same molecule, the IC50 (HIV-1YU2; YU2 Env P212A) was 10.2 ± 1.5 µM, the Fold change (HIV-1YU2; YU2 Env P212A) was 1.2 and the IC50 (HIV-1YU2; YU2 Env Q114N) was 14.8 ± 2.1 µM. The Fold change (HIV-1YU2; YU2 Env Q114N) was 1.7, the IC50 (HIV-1YU2; YU2 Env S110A) was 7.3 ± 1.6 µM and the Fold change (HIV-1YU2; YU2 Env S110A) was 0.9. It also gave an IC50 (HIV-1YU2; YU2 Env S110N) of 5.9 ± 1.8 µM, a Fold change (HIV-1YU2; YU2 Env S110N) of 0.7 and an IC50 (HIV-1YU2; YU2 Env S375A) of 10 ± 1.3 µM. For the same molecule, the Fold change (HIV-1YU2; YU2 Env S375A) was 1.2, the IC50 (HIV-1YU2; YU2 Env S375W (associated with resistance to BMS-806)) was 14.6 ± 2.8 µM and the Fold change (HIV-1YU2; YU2 Env S375W) was 1.7. For the same molecule, the IC50 (HIV-1YU2; YU2 Env T71A) was 7.1 ± 1.4 µM, the Fold change (HIV-1YU2; YU2 Env T71A) was 0.8 and the IC50 (HIV-1YU2; YU2 Env T257A) was 13.2 ± 1.1 µM. It also gave a Fold change (HIV-1YU2; YU2 Env T257A) of 1.5, an IC50 (HIV-1YU2; YU2 Env T257S) of 6.9 ± 0.8 µM and a Fold change (HIV-1YU2; YU2 Env T257S) of 0.8. For the same molecule, the IC50 (HIV-1YU2; YU2 Env V255A) was 14 ± 1.2 µM, the Fold change (HIV-1YU2; YU2 Env V255A) was 1.6 and the IC50 (HIV-1YU2; YU2 Env V255G) was 7.9 ± 1.7 µM. For the same molecule, the Fold change (HIV-1YU2; YU2 Env V255G) was 0.9, the IC50 (HIV-1YU2; YU2 Env V255I) was 5.4 ± 1.3 µM and the Fold change (HIV-1YU2; YU2 Env V255I) was 0.6. The IC50 (HIV-1YU2; YU2 Env V255W) was 3.6 ± 1.3 µM, the Fold change (HIV-1YU2; YU2 Env V255W) was 0.4 and the IC50 (HIV-1YU2; YU2 Env V430A) was 5.9 ± 0.6 µM. It also gave a Fold change (HIV-1YU2; YU2 Env V430A) of 0.7, an IC50 (HIV-1YU2; YU2 Env V430S) of 2.9 ± 0.3 µM and a Fold change (HIV-1YU2; YU2 Env V430S) of 0.3. For the same molecule, the IC50 (HIV-1YU2; YU2 Env W69L) was 3.5 ± 0.5 µM, the Fold change (HIV-1YU2; YU2 Env W69L + S375W) was 1.7 and the Fold change (HIV-1YU2; YU2 Env W69L) was 0.4. It also gave an IC50 (HIV-1YU2; YU2 Env W479A) of 1.3 ± 0.2 µM, a Fold change (HIV-1YU2; YU2 Env W479A) of 0.2 and an IC50 (HIV-1YU2; YU2 Env W596M) of 9.4 ± 1.4 µM. The Fold change (HIV-1YU2; YU2 Env W596M) was 1.1, the IC50 (HIV-1YU2; YU2 Env double mutant W69L + S375W) was 15 ± 2.5 µM and the IC50 (HIV-1YU2; YU2 Env wild type) was 8.6 ± 1.4 µM. For the same molecule, the Fold change (HIV-1YU2; YU2 Env wild type) was 1, the IC50 ([1]; HXBc2 (YU2 V3) chimera) was 20.2 ± 2.2 µM and the IC50 ([1]; HXBc2 (YU2 V123) chimera) was 12.5 ± 1.6 µM. For the same molecule, the IC50 ([2]; read-out: IC50 values of the majority (75%) of CCR5-using HIV-1 isolates) was less than 6 µM and the IC50 ([2]; read-out: average IC50 for all CCR5-using HIV-1 isolates) was 5.7 µM.
